The numbers were not newly measured in publication PMC8778818, “Synthesis, Structural Characterization and Anticancer Activity of New 5-Trifluoromethyl-2-thioxo-thiazolo[4,5-d]pyrimidine Derivatives” (Pharmaceuticals, 2022), which cites them from elsewhere.

In data set [1] the test system is 60 human cancer cell lines. The arrangement: method as in PMID 579132. The note with it: analogs IV and V, cited from earlier work.
For another data set, the system named is CAKI-1. The arrangement: method as in PMID 579132. The following applies: Renal C. CAKI-1, 10^−5 M one dose; cited from earlier work.

On to `Fc1ccc(-c2nc(Cl)c3sc(=S)n(-c4ccccc4)c3n2)cc1` [V], for which the “N2: number of cell lines giving positive log TGI (≤−4.01)” value in data set [1] (of N = 59 tested cell lines) is 49. Besides, in data set [1] (values > −4.00 excluded), the “log GI50 Range” value was −4.23 to −8.00 log M, the “log LC50 Range” value was −4.07 to −5.42 log M and the “log TGI Range” value is given as −4.10 to −5.90 log M. For the same compound, the “Growth % of the most sensitive cell line” value with CAKI-1 is on record as −88.95%.
